The structures appear in SMILES notation. “Also recorded” adds a separate entry of the source. Read-outs that look alike come from different tables or passages of the source.

Data set [1] concerns the target AC2 (UniProt P26769). As to the kind of experiment: Inhibition of recombinant AC2 (baculovirus overexpression system). Conditions: for IC50: read-out: IC50 AC2, recombinant AC proteins, Table 1; for inhibition of AC2: in the presence of Gs-α/GTPαS/forskolin.
Description: (§2) Several drugs with the adenine-like structure for AC5 inhibitors were screened using recombinant proteins of several AC subtypes with a baculovirus overexpression system.
Data set [2] addresses T1, AC3 (Rattus norvegicus, UniProt P21932).
T1 construct: made in house; host or cells: insect cells (baculovirus)
T1 sequence (P21932 1-1144): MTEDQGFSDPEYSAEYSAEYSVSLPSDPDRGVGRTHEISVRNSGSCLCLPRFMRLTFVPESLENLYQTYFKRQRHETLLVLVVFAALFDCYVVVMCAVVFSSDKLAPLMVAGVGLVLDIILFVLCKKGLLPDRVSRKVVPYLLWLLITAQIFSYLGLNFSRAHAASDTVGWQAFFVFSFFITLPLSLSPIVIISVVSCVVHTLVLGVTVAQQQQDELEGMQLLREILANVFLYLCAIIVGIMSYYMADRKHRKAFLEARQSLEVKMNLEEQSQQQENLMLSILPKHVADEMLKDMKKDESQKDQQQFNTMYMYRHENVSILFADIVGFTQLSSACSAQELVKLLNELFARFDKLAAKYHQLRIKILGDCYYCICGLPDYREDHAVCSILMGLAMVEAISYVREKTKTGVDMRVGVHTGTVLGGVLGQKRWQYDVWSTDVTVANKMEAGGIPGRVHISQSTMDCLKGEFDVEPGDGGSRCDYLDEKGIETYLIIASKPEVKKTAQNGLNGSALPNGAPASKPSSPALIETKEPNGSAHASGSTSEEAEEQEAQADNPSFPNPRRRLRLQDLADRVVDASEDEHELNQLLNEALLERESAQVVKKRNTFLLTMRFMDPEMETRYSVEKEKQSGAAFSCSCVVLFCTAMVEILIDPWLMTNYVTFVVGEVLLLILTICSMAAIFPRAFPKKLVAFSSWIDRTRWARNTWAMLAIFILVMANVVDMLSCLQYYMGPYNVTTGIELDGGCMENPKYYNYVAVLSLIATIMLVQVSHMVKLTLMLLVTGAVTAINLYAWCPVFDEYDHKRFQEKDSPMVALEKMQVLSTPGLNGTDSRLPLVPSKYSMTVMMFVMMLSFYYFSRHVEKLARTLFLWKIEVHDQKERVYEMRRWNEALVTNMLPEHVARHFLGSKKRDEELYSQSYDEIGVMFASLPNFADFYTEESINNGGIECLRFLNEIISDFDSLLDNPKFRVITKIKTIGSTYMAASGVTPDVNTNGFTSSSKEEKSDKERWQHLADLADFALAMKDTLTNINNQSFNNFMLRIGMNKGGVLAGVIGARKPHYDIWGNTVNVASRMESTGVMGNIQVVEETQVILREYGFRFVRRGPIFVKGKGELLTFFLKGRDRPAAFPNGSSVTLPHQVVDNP
Briefly: Inhibition of recombinant AC3 (baculovirus overexpression system). The data set is classed as biochemical. Conditions: for inhibition of AC3: in the presence of Gs-α/GTPαS/forskolin.
Description: as §2

Data set [3] concerns cardiac myocytes. Briefly: ISO-induced cAMP accumulation in cardiac myocytes. The data set is classed as cell-based, mouse. The text has this: Decreases in cAMP in AC5 KO were observed only at high ISO concentrations. […] (Toya et al., J Mol Cell Cardiol., 1998; 30(1):97-108)
The target of data set [4] is AC5 (UniProt P30803). Briefly: Inhibition of recombinant AC5 (baculovirus overexpression system). Also noted: IC50 AC5. It counts as biochemical.
Description: as §2
Data set [5] relates to AC5. The data set is described as above. To be noted: for Selectivity ratio for AC5, AC5/AC2: ratio of IC50 for AC5 to that for AC2; for Selectivity ratio for AC5, AC5/AC3: ratio of IC50 for AC5 to that for AC3. The data set is classed as biochemical.
Description: as §2
The subject of data set [6] is cultured cardiac myocytes. As to the kind of experiment: ISO-induced apoptosis and contraction in cultured cardiac myocytes. It counts as cell-based.
Data set [7] has as its system brain function. Briefly: Bradykinesia and locomotor activity. To be noted: as observed in AC5 KO.
The subject of data set [8] is AC activity in the heart of dogs. Briefly: Forskolin-induced haemodynamic response in instrumented dog. Conditions: AraAde 15 mg/kg intravenously, forskolin 50 nmol/kg. It counts as in vivo. The text has this: An adult mongrel dog (16.5 kg, male) was surgically instrumented, for measurements of LV pressure (P), LV dP/dt, aortic pressure, ascending aortic blood flow (stroke volume) and mean aortic blood flow (cardiac output). (a) The response to intravenous infusion of Forskolin (50 nmol/kg) is shown on the phasic waveforms on the left. LV dP/dt, aortic flow (stroke volume) and mean aortic flow (cardiac output) are increased.

Data set [9] has as its system high-fat-diet-fed C57BL/6 mice. As to the kind of experiment: High-fat-diet-fed C57BL/6 mice treated with AraAde. The data set is classed as in vivo, mouse. Details: insulin resistance, HOMA IR: unit not given here.
Data set [10] is described as follows: Tolerability of subcutaneous mini-osmotic pump infusion. It counts as in vivo. To be noted: infused subcutaneously, up to 3 months.
In data set [11] the test system is AC5. As to the kind of experiment: Forskolin-stimulated 32P-cAMP production in heart membranes from AC5 Tg mice. The data set is classed as biochemical, mouse. Details: dose or concentration left out as unconfirmed. To be noted: n=4. A general note: Cyclic AMP is a second messenger, typically raised through Gs and lowered through Gi signalling.
Protocol: To measure AC5 inhibition, in addition to membrane preparations from mouse heart, membrane preparations from mouse striatum were used because AC5 provides about 80% of total AC activity in the striatum, mimicking purified AC5. cAMP was measured with 50 mM forskolin (FSK) in the presence or absence of 10 mM of the indicated drugs).
In data set [12] the test system is C57Bl/6 mice with chronic ISO infusion. As to the kind of experiment: Chronic ISO infusion model. It counts as in vivo, mouse. From the text: Mice were then subjected to echocardiography (LVEF) (A); and tissue was harvested for pathological examination of myocardial apoptosis (by TUNEL) (B); and fibrosis (by PASR) (C). n=4-9.*p<0.05 vs. all other groups. […] Thus, this AC5 inhibitor is protective against the development of ISO-induced cardiomyopathy.

Data set [13] concerns AC6. Briefly: Forskolin-stimulated 32P-cAMP production in heart membranes from AC6 Tg mice. The data set is classed as biochemical, mouse. To be noted: forskolin 50 mM, n=4. The protocol:
(§1) Hearts were dissected from the mice and membrane preparations were prepared as described previously. Protein concentration was measured by the method of Bradford using bovine serum albumin as a standard. AC activity was measured as described previously. AC activity was linear within the incubation time up to 30 min. In order to harvest hearts for tissue cAMP content measurements, mice were allowed to acclimate to the surroundings in the laboratory for an hour before sacrifice. Freshly isolated hearts were briefly immersed in liquid nitrogen. The tissue was homogenized in ice-cold 6% percholic acid, and cAMP was extracted as described before. The concentration of cAMP was determined with an RIA kit (PerkinElmer Life Sciences, Boston, Mass., USA).

Data set [14] concerns myocardial infarction. Briefly: Survival after myocardial infarction. To be noted: in vivo.
Data set [15] concerns the target AC5 (UniProt P30803). As to the kind of experiment: Inhibition of recombinant AC5 (baculovirus overexpression system). The data set is classed as biochemical. Also noted: IC50 for AC5; other: in the presence of Gs-α/GTPαS/forskolin. Conditions: in the presence of Gs-α/GTPαS/forskolin.
Description: as §2
In data set [16] the test system is AC activity in heart membranes. As to the kind of experiment: ISO-stimulated AC activity in heart membranes of WT and AC5KO mice. The data set is classed as biochemical, mouse. Conditions: 10 μM. The protocol: as §1
cAMP production in membranes from the hearts of AC5KO and WT at 6 months of age was examined. The steady state AC activity was determined as the maximal capacity of cAMP production in the presence of ISO (100 μM ISO+100 μM GTP), GTPγS (100 μM) or forskolin (100 μM). […] Basal cardiac function was not decreased, but the response to ISO and muscarinic inhibition of ISO were attenuated.

Data set [17] relates to cardiac myocytes. Conditions: cited from earlier work.
In data set [18] the test system is AC5. To be noted: cited from earlier work.
In data set [19] the test system is AC2. Conditions: previously noted; cited from earlier work.
The conditions of data set [20]: occur in roughly half of administered patients; cited from earlier work.
[21] abbreviates: recombinant AC proteins, Table 1, read-out: IC50 AC5.
Where [22] appears, read: recombinant AC proteins, Table 1, read-out: IC50 AC3.

In the case of `C[C@H]1O[C@@H](n2cnc3c(N)ncnc32)C[C@@H]1O` [2′5′-dd-Ado, 2′5′ dideoxyadenosine], the values for the IC50 in data set [1], in [2] and in data set [4] (setting [21]) were 2380 µM, 253 µM and 1.6 µM, respectively. In data set [3], the “maximum level of suppression of ISO-induced cAMP accumulation” value is on record as “around 30%”. The “Selectivity ratio for AC5, AC5/AC2” value in [5] was found to be 0.00067. For the same molecule, the “Selectivity ratio for AC5, AC5/AC3” value in data set [5] worked out at 0.0063. Besides, the “ISO induced apoptosis in cultured cardiac myocytes” value in data set [6] is “prevented”. Moreover, the “contraction in cultured cardiac myocytes” value in [6] is on record as “without impairing contraction”.

As to `Nc1ncnc2c1ncn2[C@H]1C[C@H](OP(=O)(O)O)[C@@H](CO)O1` [2′-d-3′-AMP], the IC50 in data set [4] (read-out: IC50 for AC5) amounted to 0.82 µM.

Turning to `Nc1ncnc2c1ncn2[C@@H]1O[C@H](CO)[C@@H](OP(=O)(O)O)[C@H]1O` [3′-AMP], the IC50 in data set [4] (read-out: IC50 for AC5) is 14.6 µM.

Regarding `Nc1ncnc2c1ncn2[C@@H]1O[C@H](CO)[C@@H](O)[C@@H]1O` [AraAde, 9-β-D-arabinofuranosyladenine], the IC50 in [1] stood at 7200 µM. Further, in data set [7], the “bradykinesia and impaired locomotor activity” value is reported as “does not induce”. Moreover, in [8], the “forskolin-induced LV dP/dt max” value is “attenuated” and the forskolin-induced cardiac output entry is given as “attenuated”. In addition, the IC50 in data set [2] (setting [22]) stood at 375 µM. Moreover, the plasma insulin level result in data set [9] (15 mg/kg/day, high-fat diet) is “unchanged; also recorded: the elevation in insulin was minimal”. For the same molecule, the fasting blood glucose result in data set [9] (15 mg/kg/day, high-fat diet, vs vehicle) is “decreased”. Further, in data set [9] (94 days high fat diet, 42 days AraAde), the glucose tolerance entry is recorded as “improved”. In data set [9] (terminal blood after 6-7 hour fast, n=2), the “insulin resistance, HOMA IR” value was found to be 6.38. Also, the tolerability entry in [10] was “well tolerated”. In data set [11], the “forskolin induced cAMP production, hearts from AC5 Tg” value was “dramatically decreased”. Further, the “maximum level of suppression of ISO-induced cAMP accumulation” value in data set [3] is “around 30%”. Moreover, in data set [12] (AraAde 100 μg/g/day), the “ISO-induced cardiac fibrosis (PASR)” value is “significantly inhibited” and the “ISO-induced myocardial apoptosis (TUNEL)” value is given as “significantly inhibited”. Further, the “chronic ISO-induced decreases in LVEF” value in [12] (AraAde 20 mg/kg/day for 1 week, echocardiography) is given as “inhibited”. In addition, in [12] (chronic ISO 60 mg/kg/day for 1 week, AraAde 15 mg/kg/day, n=4-6), the “exercise performance, maximum treadmill speed” value was “rescued exercise performance”. In addition, the “forskolin induced cAMP production, hearts from AC6 Tg” value in data set [13] is listed as “not”. In data set [4] (setting [21]), the IC50 was 9.8 µM. Besides, in data set [6], the “ISO induced apoptosis in cultured cardiac myocytes” value is given as “prevented”. The “survival rate after myocardial infarction” value in data set [14] was “increased”.

For the molecule `Nc1ncnc2c1ncn2C1CCCC1` [CPA, 9-(cyclopentyl) adenine], the “inhibition of AC2” value in [1] is “only to a modest degree”. Further, the “inhibition of AC3” value in [2] is reported as “only to a modest degree”. Further, the “inhibition of AC5” value in data set [15] was “potently inhibited”.

For `C[N+](C)(C)CCOC(N)=O` [Carbachol], in [16] (AC5KO heart membranes), the “inhibition of ISO-stimulated AC activity in AC5KO” value is “did not inhibit”. Further, the “decrease of ISO-stimulated AC activity in WT” value in [16] (WT heart membranes) is recorded as 21+/−3.4%.

For `Nc1ncc2c(n1)CC(c1ccco1)CC2=O` (stereo not drawn) [NKY80, 2-amino-7-(2-furanyl)-7,8-dihydro-5(6H)-quinazoline], the “inhibition of cAMP accumulation in cultured cardiac myocytes” value in data set [17] was “does not inhibit”. For the same molecule, the “inhibition of purified AC5 protein in vitro” value in data set [18] is recorded as “moderate inhibition”.

For the molecule `Nc1ncnc2c1ncn2C1CCC(C(=O)NO)C1` (stereo not drawn) [PMC-6], the figures for the half-inhibitory concentration (IC50) in data set [1], in [2] (setting [22]) and in data set [4] (setting [21]) were 65.3 µM, 11.1 µM and 0.32 µM, respectively. Also, the “Selectivity ratio for AC5, AC5/AC2” value in data set [5] was 0.0049. Also, in data set [5], the “Selectivity ratio for AC5, AC5/AC3” value is 0.029.

Regarding `Nc1ncnc2c1ncn2C1CCCO1` (stereo not drawn) [THFA, 9-(tetrahydro-2-furyl) adenine], the “selectivity ratio between AC6 and AC2” value in data set [19] is on record as 1.8. The “inhibition of AC2” value in [1] was “only to a modest degree”. Besides, in [2], the “inhibition of AC3” value was “only to a modest degree”. Besides, the “inhibition of AC5” value in [15] is “potently inhibited”. For the same molecule, in [5], the “selectivity ratio between AC5 and AC2” value is reported as 130.

Consider `Nc1nc(F)nc2c1ncn2[C@@H]1O[C@H](CO)[C@@H](O)[C@@H]1O` [fludarabine], for which the “adverse effects in patients” value in data set [20] is reported as “severe adverse effects including bone marrow suppression”.

A word on the IC50: it is the concentration that inhibits the measured activity by half.

Values taken from patent US8440640B2, “Methods and compositions for treating obesity and related disorders” (University of Medicine and Dentistry of New Jersey, priority 2008, dated 2013).
